Data from ChEMBL document CHEMBL1201862, “PubChem BioAssay data set” (2004).
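The compound was tested at five concentrations on cells cultured in 96-well plates, with a 48-hour exposure period. At the GI50, growth is halved.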 Calls of active or inactive are those of the source. Rule as the data show it: active = GI50 up to about 1.1 µM and inactive = higher.

How the values were obtained:
Test in all cases: growth of human tumour cells (NCI), 48 h
[1] = system: ACHN
[2] = system: CCRF-CEM
[3] = system: HCT-116
[4] = system: HL-60
[5] = system: IGROV-1
[6] = system: M14
[7] = system: MOLT-4
[8] = system: NCI-H23
[9] = system: NCI-H460
[10] = system: NCI/ADR-RES
[11] = system: OVCAR-5
[12] = system: OVCAR-8
[13] = system: PC-3
[14] = system: SF-268
[15] = system: SF-539
[16] = system: SK-MEL-28
[17] = system: SNB-19
[18] = system: SNB-75
[19] = system: UO-31
[20] = system: SR

SMILES | GI50 [1] | GI50 [2] | GI50 [3] | GI50 [4] | GI50 [5] | GI50 [6] | GI50 [7] | GI50 [8] | GI50 [9] | GI50 [10] | GI50 [11] | GI50 [12] | GI50 [13] | GI50 [14] | GI50 [15] | GI50 [16] | GI50 [17] | GI50 [18] | GI50 [19] | GI50 [20]
C=C(NC(=O)C(=C)NC(=O)c1csc(C2=NC3c4csc(n4)C4NC(=O)c5csc(n5)C(C(C)(O)C(C)O)NC(=O)C5CSC(=N5)/C(=C/C)NC(=O)C(C(C)O)NC(=O)c5csc(n5)C3(CC2)NC(=O)C(C)NC(=O)C(=C)NC(=O)C(=C)NC(=O)C(C(C)C)NC2C=Cc3c(C(C)O)cc(nc3C2O)C(=O)OC4C)n1)C(N)=O (configuration not stated) | 2.59 µM (inactive) | 0.25 µM (active) | 0.312 µM (active) | 2.24 µM (inactive) | 7.28 µM (inactive) | 2.62 µM (inactive) | 0.364 µM (active) | 7.13 µM (inactive) | 4.7 µM (inactive) | > 42.2 µM (inactive) | 4.09 µM (inactive) | 0.935 µM (active) | 6.89 µM (inactive) | 7.19 µM (inactive) | 0.34 µM (active) | 1.38 µM (inactive) | 33 µM (inactive) | > 30.2 µM (inactive) | 60.5 µM (inactive) | 
CN(CC(=O)N1CC(CCl)c2ccc([N+](=O)[O-])cc21)CC(=O)N1CC(CCl)c2ccc([N+](=O)[O-])cc21 (configuration not stated) | > 100 µM (inactive) | > 100 µM (inactive) | > 100 µM (inactive) | > 100 µM (inactive) | 34.9 µM (inactive) | > 100 µM (inactive) | > 100 µM (inactive) | > 100 µM (inactive) | > 100 µM (inactive) | > 100 µM (inactive) | > 100 µM (inactive) | > 100 µM (inactive) | > 100 µM (inactive) | > 100 µM (inactive) | > 100 µM (inactive) | > 100 µM (inactive) | > 100 µM (inactive) | > 100 µM (inactive) | > 100 µM (inactive) | 
CC(C)(CC1(C)NC(=O)NC1=O)OCc1ccccc1 (configuration not stated) | > 100 µM (inactive) |  | > 100 µM (inactive) | < 0.01 µM (active) | > 100 µM (inactive) | > 100 µM (inactive) |  | > 100 µM (inactive) | > 100 µM (inactive) | > 100 µM (inactive) | > 100 µM (inactive) | > 100 µM (inactive) | > 100 µM (inactive) | > 100 µM (inactive) |  | > 100 µM (inactive) | > 100 µM (inactive) | > 100 µM (inactive) | > 100 µM (inactive) | > 100 µM (inactive)
Cn1c(=O)c2c(no[n+]2[O-])n(C)c1=O | > 100 µM (inactive) | > 100 µM (inactive) | > 100 µM (inactive) |  | 22.2 µM (inactive) | > 100 µM (inactive) | > 100 µM (inactive) | 22.4 µM (inactive) | > 100 µM (inactive) | 22.9 µM (inactive) | > 100 µM (inactive) | 19.1 µM (inactive) | > 100 µM (inactive) | 25.6 µM (inactive) | 63.2 µM (inactive) |  | 22.3 µM (inactive) | 49.7 µM (inactive) | 31 µM (inactive) | > 100 µM (inactive)
Nc1c(C(=O)c2ccccc2)nnc2ccccc12 | 24.8 µM (inactive) |  | 24.6 µM (inactive) | < 0.01 µM (active) | 26.6 µM (inactive) | 39.3 µM (inactive) | 36.1 µM (inactive) | 24.8 µM (inactive) | 24 µM (inactive) | 21.5 µM (inactive) | 36.5 µM (inactive) | 33.7 µM (inactive) | 24.8 µM (inactive) | 35.6 µM (inactive) | 27.4 µM (inactive) | 43.9 µM (inactive) | 37.9 µM (inactive) |  | 24.7 µM (inactive) | 38.4 µM (inactive)
ClC1=NN=C(c2c[nH]c3ccccc23)CC1NCc1ccccc1 (configuration not stated) | > 100 µM (inactive) | > 100 µM (inactive) | > 100 µM (inactive) | > 100 µM (inactive) | 97.7 µM (inactive) | > 100 µM (inactive) | > 100 µM (inactive) | > 100 µM (inactive) | > 100 µM (inactive) | > 100 µM (inactive) | > 100 µM (inactive) | > 100 µM (inactive) | > 100 µM (inactive) | > 100 µM (inactive) | > 100 µM (inactive) | > 100 µM (inactive) | > 100 µM (inactive) | > 100 µM (inactive) | > 100 µM (inactive) | 
COc1ccc(/C=N/NC(=O)c2ccc(O)c(CN(C)C)c2)cc1 | > 100 µM (inactive) | > 100 µM (inactive) | > 100 µM (inactive) | > 100 µM (inactive) | > 100 µM (inactive) | > 100 µM (inactive) | > 100 µM (inactive) | > 100 µM (inactive) | > 100 µM (inactive) | > 100 µM (inactive) | > 100 µM (inactive) | > 100 µM (inactive) | > 100 µM (inactive) | > 100 µM (inactive) | > 100 µM (inactive) | > 100 µM (inactive) | > 100 µM (inactive) |  | > 100 µM (inactive) | > 100 µM (inactive)
COc1ccc(/N=C2/SC(=N/N=c3\sc4ccccc4n3C)S/C2=N/c2ccc(OC)cc2)cc1 | 36.8 µM (inactive) |  | 29.8 µM (inactive) |  | > 100 µM (inactive) | > 100 µM (inactive) | 13.1 µM (inactive) | 41.9 µM (inactive) | > 100 µM (inactive) | > 100 µM (inactive) | > 100 µM (inactive) | > 100 µM (inactive) | > 100 µM (inactive) | > 100 µM (inactive) | > 100 µM (inactive) | > 100 µM (inactive) | > 100 µM (inactive) | 24.6 µM (inactive) | > 100 µM (inactive) | > 100 µM (inactive)
Cc1ccc2c(c1C)CC1(Cc3c(ccc4c3CCC4)C1=O)C2=O (configuration not stated) | > 100 µM (inactive) | > 100 µM (inactive) | > 100 µM (inactive) | > 100 µM (inactive) | > 100 µM (inactive) | 52.4 µM (inactive) | > 100 µM (inactive) | > 100 µM (inactive) | > 100 µM (inactive) | > 100 µM (inactive) | > 100 µM (inactive) | > 100 µM (inactive) | 62.2 µM (inactive) | > 100 µM (inactive) | 0.652 µM (active) | > 100 µM (inactive) | > 100 µM (inactive) | 51.6 µM (inactive) | > 100 µM (inactive) | 
O=c1[nH]cnc2c1ncn2[C@H]1CO[C@@H](CO)[C@@H]1O | > 100 µM (inactive) | > 100 µM (inactive) | > 100 µM (inactive) |  | > 100 µM (inactive) |  | > 100 µM (inactive) | > 100 µM (inactive) | > 100 µM (inactive) | > 100 µM (inactive) | > 100 µM (inactive) |  | > 100 µM (inactive) | > 100 µM (inactive) | > 100 µM (inactive) | > 100 µM (inactive) |  | > 100 µM (inactive) | > 100 µM (inactive) | > 100 µM (inactive)
CC(=O)OCCCC(NC(=O)OC(C)(C)C)C(=O)NC(CCCOC(C)=O)C(=O)NC(Cc1ccc([N+](=O)[O-])cc1)C(=O)NCC(=O)OCc1ccccc1 (configuration not stated) | 17.4 µM (inactive) | 29.7 µM (inactive) | 18.1 µM (inactive) | 3.15 µM (inactive) | 17.9 µM (inactive) | 12.9 µM (inactive) | 37.6 µM (inactive) | 14.3 µM (inactive) | 15.6 µM (inactive) | 19.2 µM (inactive) | 15.8 µM (inactive) | 17.3 µM (inactive) | 17.2 µM (inactive) | 20.2 µM (inactive) | 15.3 µM (inactive) | 17.9 µM (inactive) | 17.8 µM (inactive) |  | 16.1 µM (inactive) | 15.6 µM (inactive)
OC(c1nc2ccccc2s1)(C(F)(F)F)C(F)(F)F | > 100 µM (inactive) | > 100 µM (inactive) | > 100 µM (inactive) | > 100 µM (inactive) | > 100 µM (inactive) | > 100 µM (inactive) | > 100 µM (inactive) | > 100 µM (inactive) | > 100 µM (inactive) | > 100 µM (inactive) | > 100 µM (inactive) | > 100 µM (inactive) | > 100 µM (inactive) | > 100 µM (inactive) | > 100 µM (inactive) | > 100 µM (inactive) | > 100 µM (inactive) | > 100 µM (inactive) | 87.1 µM (inactive) | 
C[N+]1(CCCC[N+]2(C)CCCCCCC2)CCCCCCC1 | > 100 µM (inactive) | > 100 µM (inactive) | > 100 µM (inactive) | > 100 µM (inactive) | > 100 µM (inactive) | > 100 µM (inactive) | > 100 µM (inactive) | > 100 µM (inactive) | > 100 µM (inactive) | > 100 µM (inactive) | > 100 µM (inactive) | > 100 µM (inactive) | > 100 µM (inactive) | > 100 µM (inactive) |  | > 100 µM (inactive) | > 100 µM (inactive) |  | > 100 µM (inactive) | > 100 µM (inactive)
O=S(=O)(N/C(=N\O)Nc1ccc(Cl)cc1)c1cc(S(=O)(=O)c2ccccc2)cs1 | 16.1 µM (inactive) | 11.2 µM (inactive) | 13.6 µM (inactive) | 2.81 µM (inactive) | 17.9 µM (inactive) | 15.1 µM (inactive) | 6.87 µM (inactive) | 17.9 µM (inactive) | 17.7 µM (inactive) | 33.2 µM (inactive) | 16.5 µM (inactive) | 15.8 µM (inactive) | 15 µM (inactive) | 11.5 µM (inactive) | 14.3 µM (inactive) | 16 µM (inactive) | 17.9 µM (inactive) |  | 14.3 µM (inactive) | 6.21 µM (inactive)
